{"source": "patent US20130123108A1", "about": "“ACTIVE SUBSTANCE COMPOSITION COMPRISING AT LEAST ONE NITROGEN ATOM-CONTAINING, HYPERBRANCHED POLYMER” (BASF SE, priority 2005, published 2013)", "key": {"[1]": {"assay": "Redispersing of polymer/active substance compositions in buffer, general procedure 1", "format": "physicochemical", "parameters": "key: 1: unsatisfactory redispersing, sediment; 2: no ambiguous assessment possible; 3: complete redispersing with clouding (weak to opaque); 4: clear solution", "conditions": "phosphate buffer pH 6.8", "method": "Each time 1 or 10% by weight solutions in N,N-dimethylformamide (DMF) of the hyperbranched polymer to be assessed and also 0.1% by weight solutions of the active substances, likewise in DMF, were provided. Active substance compositions were prepared by mixing in a Tecan pipetting robot with the use of 1 ml flat-bottomed glass vessels from HJ-Bioanalytik (96-well plates in the deep well format). Each time 50 μl of polymer and 500 μl of active substance solution were added to a vessel and the solvent was subsequently removed by drying for 24 hours in a vacuum-drying chamber at 70° C. and a pressure of less than 10 mbar. The test samples were subsequently redispersed by addition of 500 μl of buffer solution (phosphate buffer pH 6.8, 23.05 g of potassium dihydrogenphosphate, 23.30 g of disodium hydrogenphosphate, deionized water made up to 5000 ml) and subsequent shaking for two hours using an HP MTP shaker. The assessment was carried out by measuring the particle size using diffusion light scattering after a resting phase of 2 h.\n1=unsatisfactory redispersing, sediment 2=no ambiguous assessment possible 3=complete redispersing with clouding (weak to opaque) 4=clear solution\nDetermination of the properties of aqueous active substance compositions according to general procedure 1. Use was made of bentazon at a polymer/active substance ratio of 1:1 and metazachlor at a polymer/active substance ratio of 10:1."}, "[2]": {"assay": "Solubility from solid dispersion with hyperbranched polymer, general procedure 2", "format": "physicochemical", "conditions": "for solubility at 24 h: pH 6.8, aqueous with cosolvent or surfactant or cyclodextrin, thermodynamic from solid", "method": "0.5 g of the chosen polymer and 0.1 g of a compound to be dissolved in water were dissolved in approximately 20 ml of N,N-dimethylformamide (DMF). The mixture was stirred and subsequently freed from DMF. A solid dispersion of the chosen copolymer with the chosen compound to be dissolved was obtained. The solid dispersion was added to 100 ml of water (buffered to pH 6.8) and the mixture was stirred for 24 h. After filtration, solutions were obtained and their contents of the compound to be dissolved were determined using HPLC and a UV detector. The literature values for water solubilities of the chosen compounds and the wavelengths of the measurement by UV spectroscopy are listed in table 1:\nDetermination of the properties of aqueous active substance compositions according to general procedure 2."}, "[3]": {"conditions": "literature values, Table 1; cited from earlier work"}, "[4]": {"conditions": "literature values, Table 2; cited from earlier work"}, "[5]": {"assay": "Solubility in supersaturated polymer solution, general procedure 3", "format": "physicochemical", "conditions": "phosphate buffer pH 7.0 with hyperbranched polymer, pH 7, aqueous with cosolvent or surfactant or cyclodextrin, thermodynamic from solid, 0.2 g piroxicam, 20 g phosphate buffer pH 7.0, UV spectroscopy", "method": "Approximately 2 g of polymer were weighed out in a glass beaker. Subsequently, 0.2 g of piroxicam or 0.3 g of carbamazepine was each time weighed out into the charge in order to obtain a supersaturated solution. Subsequently, 20 g of phosphate buffer pH 7.0 were added. After filtration, solutions were obtained and their contents of the compound to be dissolved were determined by UV spectroscopy.\nDetermination of the properties of aqueous active substance compositions according to general procedure 3."}, "[6]": {"conditions": "water buffered to pH 6.8 with hyperbranched polymer, 0.5 g polymer, 0.1 g compound, 100 ml water buffered to pH 6.8, stirred 24 h, HPLC/UV, read-out: Solubility in the presence of Polymer 5"}, "[7]": {"conditions": "water buffered to pH 6.8 with hyperbranched polymer, Solubility in the presence of Polymer 1, 0.5 g polymer, 0.1 g compound, 100 ml water buffered to pH 6.8, stirred 24 h, HPLC/UV"}}, "note": "Where two headings read alike, the source gives them in different places."}
{"smiles": "CC(C)N1C(=O)c2ccccc2NS1(=O)=O", "note": "[Bentazon]", "values": [{"measurement": "Assessment", "setting": "[1]; Polymer from example 1, polymer/active substance ratio 1:1", "result": 4}, {"measurement": "Assessment", "setting": "[1]; Polymer from example 6, polymer/active substance ratio 1:1", "result": 4}]}
{"smiles": "NC(=O)N1c2ccccc2C=Cc2ccccc21", "note": "[Carbamazepine]", "values": [{"measurement": "solubility at 24 h", "setting": "[2]; [6]", "result": 190, "unit": "µg/mL"}, {"measurement": "solubility at 24 h", "setting": "[2]; [7]", "result": 181, "unit": "µg/mL"}, {"measurement": "solubility at 24 h", "setting": "[2]; water buffered to pH 6.8 with hyperbranched polymer, Solubility in the presence of Polymer 4, 0.5 g polymer, 0.1 g compound, 100 ml water buffered to pH 6.8, stirred 24 h, HPLC/UV", "result": 336, "unit": "µg/mL"}, {"measurement": "Water solubility (without polymer)", "setting": "[3]", "result": 120, "unit": "µg/mL"}]}
{"smiles": "CCOC(=O)/C(Cl)=C/c1cc(N2C(=O)C3=C(CCCC3)C2=O)ccc1Cl", "note": "[Cinidon-ethyl]", "values": [{"measurement": "Solubility in the presence of Polymer 1", "setting": "[2]; 0.5 g polymer, 0.1 g compound, 100 ml water buffered to pH 6.8, stirred 24 h, HPLC/UV", "result": 97, "unit": "µg/mL"}, {"measurement": "Water solubility (without polymer)", "setting": "[3]", "result": 0.057, "unit": "µg/mL"}]}
{"smiles": "N#Cc1nn(-c2c(Cl)cc(C(F)(F)F)cc2Cl)c(N)c1[S+]([O-])C(F)(F)F", "note": "(centres unmarked) [Fipronil]", "values": [{"measurement": "solubility at 24 h", "setting": "[2]; Solubility in the presence of Polymer 1", "result": 448, "unit": "µg/mL"}]}
{"smiles": "Cc1cccc(C)c1N(Cn1cccn1)C(=O)CCl", "note": "[Metazachlor]", "values": [{"measurement": "Assessment", "setting": "[1]; Polymer from example 1, polymer/active substance ratio 10:1", "result": 3}, {"measurement": "Assessment", "setting": "[1]; Polymer from example 6, polymer/active substance ratio 10:1", "result": 3}]}
{"smiles": "CN1C(C(=O)Nc2ccccn2)=C(O)c2ccccc2S1(=O)=O", "note": "[Piroxicam]", "values": [{"measurement": "solubility at 24 h", "setting": "[2]; [6]", "result": 1110, "unit": "µg/mL"}, {"measurement": "solubility at 24 h", "setting": "[2]; [7]", "result": 1020, "unit": "µg/mL"}, {"measurement": "Water solubility (without polymer)", "setting": "[4]", "result": 420, "unit": "µg/mL"}, {"measurement": "solubility", "setting": "[5]; Solubility in the presence of Polymer 1, approx. 2 g polymer", "result": 9200, "unit": "µg/mL"}, {"measurement": "solubility", "setting": "[5]; approx. 2 g polymer, read-out: Solubility in the presence of Polymer 3", "result": 5300, "unit": "µg/mL"}, {"measurement": "Water solubility (without polymer)", "setting": "[3]", "result": 200, "unit": "µg/mL"}]}
